Source: patent US20220372013A2, “PIPERIDINE-2,6-DIONE DERIVATIVES AND CROHN'S DISEASE TREATING” (Tianjin Hemay Pharmaceutical Sci-Tech Co., Ltd, priority 2016, published 2022)
Marks after values point to notes of the source that are not given here.

How the values were obtained:
[1] = system: DNBS-Induced Inflammatory Bowel Disease Models in Rats; assay: Biological Example 2: DNBS-induced inflammatory bowel disease models in rats; assay type: in vivo, Wistar rats
Procedure: 110 male Wistar rats were fasted for 40 hours. A 5% glucose injection (10 mL/Kg) was administered subcutaneously during fasting. 48 rats with normal conditions and moderate body weight were selected from the fasting rats. The animals were randomly divided into […] according to the body weight: normal control group, model control group, sulfasalazine group (300 mg/Kg), dexamethasone group (0.1 mg/Kg), the compound in Example 26 group (30 mg/kg) and the compound in Example 27 group (30 mg/kg), with 8 rats in each group. The animals were anesthetized with isoflurane. A specially made gavage device (made by a rat gavage device having the diameter of 2 mm, which was nested on a mouse gavage device having the diameter of 1 mm) was slowly inserted into the enteric cavity at 8 cm from the anus. The model control group, the compound in Example 26 group and the compound in Example 27 group were administered with 0.5 mL of 50 mg/mL DNBS in 30% ethanol solution. The normal control group was administered with 0.5 mL of 30% ethanol solution. The animals were inverted in anesthesia for 15 minutes after the gavage device was removed. The day when the model was prepared was the first day of the experiment. After 4 hours of DNBS induction, the corresponding drug or the corresponding volume of 1% CMC-Na was administered once per day. On the sixth day of the experiment, the animals were euthanized to observe the results of each index so as to score the colon adhesion degree, measure the length of colon and ulcer area, weigh colon and calculate the colon weight to length ratio.
The compound in Example 26 and Example 27, sulfasalazine and dexamethasone: Preparation Method: Suspended with 1% CMC-Na, and prepared when it was needed.
Levene's Test for homogeneity of data was performed with Spss. Where the data were homogeneous (P>0.05), one-way ANOVA LSD test was performed. Where the analysis of variance was significant (P≤0.05), Dunnett's multiple comparison (parameter method) was performed. Where the results of Levene's Test were significant (P≤0.05), Kruskal-Wallis nonparametric test was performed. Where the results of Kruskal-Wallis nonparametric test were significant (P≤0.05), Mann-Whitney U test was performed for pairwise comparison.

[2] = system: DNBS-Induced Inflammatory Bowel Disease Models in Rats; assay: Biological Example 3: DNBS-induced inflammatory bowel disease models in rats; assay type: in vivo, Wistar rats; conditions: 30 mg/Kg i.g. qd × 7; for Body weight: Mean ± SD
Procedure: 102 male Wistar rats were fasted for 40 hours. A 5% glucose injection (10 mL/Kg) was administered subcutaneously during fasting. 72 rats with normal conditions and moderate body weight were selected from the fasting rats. The animals were randomly divided into 9 groups according to the body weight (see Table 9. Grouped Table).
The animals were anesthetized with ether after 40 hours fasting. A specially made gavage device was slowly inserted into the enteric cavity at 8 cm from the anus. The model control group and each test group were administered with 0.5 mL of 50 mg/mL DNBS in 30% ethanol solution. The normal control group was administered with 0.5 mL of 30% ethanol solution. The animals were inverted in anesthesia for 15 minutes. The day when the model was prepared was day 0 of the experiment. After 4 hours of DNBS induction, the corresponding drug or the corresponding volume of 1% CMC-Na was administered once per day. On day 7 of the experiment, the animals were euthanized to score the colon adhesion degree, measure the length of colon and ulcer area, weigh colon and calculate the colon weight to length ratio.
One-way ANOVA analysis of the length of colon and colon weight per length of rats was performed by SPSS22. Statistical analyses between groups were performed. The adhesion degree was scored. Mann-Whitney U non-parametric test was performed on ulcer area. Statistical analyses between groups were performed.
Calculation Formula of Inhibitory rate of weight increase per length: (Colon weight to length ratio in model group−Colon weight to length ratio in administration group)/(Colon weight to length ratio in model group−Colon weight to length ratio in blank group)

[3] = 30 mg/Kg i.g. qd × 6, sixth day, Mean ± SD

## COCCN1C(=O)CCC(N2C(=O)c3cccc(N)c3C2=O)C1=O (centres unmarked) [Example 27, 4-amino-2-(1-(2-methoxyethyl)-2,6-dioxopiperidin-3-yl)isoindolin-1,3-dione]
[1]; [3]
  Adhesion Degree: 0.9 ± 0.8 Points
  Colon Length: 12.9 ± 2.3 cm
  Colon Weight: 1737.9 ± 410.6 mg
  Ulcer Area: 2.0 ± 1.9 cm^2
[1]; 30 mg/kg i.g. qd × 6
  therapeutic effects on the model (in words): good therapeutic effects
[1]; fourth day of the experiment, compared with model control group, doses as in Table 7
  growth rate of the body weight (in words): higher than that in the model control group
[2]; day 7
  Adhesion Degree of Colon: 0.9 ± 0.4 point
  Colon weight to length ratio: 109 ± 12 mg/cm
  Inhibitory rate of colon adhesion: 47.1# %
  Inhibitory rate of ulcer area of colon: 99.7## %
  Inhibitory rate of weight increase per length: 58.2## %
  Ulcer area of colon: 0.01 ± 0.02## cm^2
[2]; Day 0
  Body weight: 135.4 ± 4.9 g
[2]; Day 1
  Body weight: 135.2 ± 4.2 g
[2]; Day 2
  Body weight: 136.7 ± 5.0 g
[2]; Day 3
  Body weight: 141.7 ± 7.5 g
[2]; Day 4
  Body weight: 150.1 ± 9.2 g
[2]; Day 5
  Body weight: 159.1 ± 10.3 g
[2]; Day 6
  Body weight: 165.2 ± 10.0 g
[2]; Day 7
  Body weight: 175.8 ± 8.2 g
